Measurements from patent US6806359B1, “Hormone receptor compositions and methods” (The Salk Institute for Biological Studies, priority 1986, dated 2004).

Key:
rTR alpha = target: T1, rTR alpha (Rattus norvegicus, UniProt P63059); experiment: ^125I-T3 binding to in vitro translated rTR alpha (Scatchard and competition); conditions: excess competitor
T1 construct: made in house; host or cells: rabbit reticulocyte lysate (SP6 transcripts of rbeA12B)
T1 sequence (P63059 1-410 isoform P63059-2): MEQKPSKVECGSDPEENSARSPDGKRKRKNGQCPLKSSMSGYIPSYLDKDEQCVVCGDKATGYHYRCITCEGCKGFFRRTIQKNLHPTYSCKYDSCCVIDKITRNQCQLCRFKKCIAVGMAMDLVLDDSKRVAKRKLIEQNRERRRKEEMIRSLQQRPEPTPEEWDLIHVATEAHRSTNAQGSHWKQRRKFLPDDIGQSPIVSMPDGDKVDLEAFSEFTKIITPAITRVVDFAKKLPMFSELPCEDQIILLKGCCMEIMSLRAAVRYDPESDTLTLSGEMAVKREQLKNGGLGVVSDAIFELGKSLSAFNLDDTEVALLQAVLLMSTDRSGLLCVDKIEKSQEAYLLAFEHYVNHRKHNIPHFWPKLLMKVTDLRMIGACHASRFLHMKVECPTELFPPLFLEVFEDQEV
Text: In vitro translation and thyroid hormone binding of rTR alpha FIG. 69 rTR alpha was transcribed in vitro and translated in a rabbit reticulocyte lysate. […] Lane 1, no added RNA; lane 2, rbeA12, which contains the entire 5′ untranslated region; lane 3, rbeA12B, which contains only 97 bp of 5′ untranslated sequence. […] Samples from rbeA12B programmed lysates were mixed with increasing concentrations of unlabeled thyroid hormone or analogs to compete with labeled hormone. […] In vitro transcription and translation and hormone binding were performed as described (22, 23).
23. For in vitro transcription, the entire EcoRI insert of rbeA12 was cloned into pGEM1 (Promega Biotec). […] For thyroid hormone binding, transcriptions were performed with SP6 polymerase and 5 to 10 micrograms of rbeA12B linearized with SstI. […] Thyroid hormone binding for both the Scatchard and competition analyses were determined in the same manner, except that unlabeled protein was used for the Scatchard analysis. […] Specific hormone binding was determined by adding a 1000-fold excess of unlabeled hormone and assayed by counting radioactivity eluting in the excluded volume from a Sephadex G-25 fine (Pharmacia) 0.9-by 4.0-cm. column.

hMR = target: T2, hMR (Homo sapiens, UniProt P08235); experiment: [^3H]aldosterone binding and steroid competition in extracts of pRShMR-transfected COS cells; set-up: expressed in transfected cells; host or cells: COS cells transfected with pRShMR (DEAE-dextran); conditions: 1-, 10-, or 100-fold molar excess of unlabeled steroid
T2 sequence (P08235 1-984): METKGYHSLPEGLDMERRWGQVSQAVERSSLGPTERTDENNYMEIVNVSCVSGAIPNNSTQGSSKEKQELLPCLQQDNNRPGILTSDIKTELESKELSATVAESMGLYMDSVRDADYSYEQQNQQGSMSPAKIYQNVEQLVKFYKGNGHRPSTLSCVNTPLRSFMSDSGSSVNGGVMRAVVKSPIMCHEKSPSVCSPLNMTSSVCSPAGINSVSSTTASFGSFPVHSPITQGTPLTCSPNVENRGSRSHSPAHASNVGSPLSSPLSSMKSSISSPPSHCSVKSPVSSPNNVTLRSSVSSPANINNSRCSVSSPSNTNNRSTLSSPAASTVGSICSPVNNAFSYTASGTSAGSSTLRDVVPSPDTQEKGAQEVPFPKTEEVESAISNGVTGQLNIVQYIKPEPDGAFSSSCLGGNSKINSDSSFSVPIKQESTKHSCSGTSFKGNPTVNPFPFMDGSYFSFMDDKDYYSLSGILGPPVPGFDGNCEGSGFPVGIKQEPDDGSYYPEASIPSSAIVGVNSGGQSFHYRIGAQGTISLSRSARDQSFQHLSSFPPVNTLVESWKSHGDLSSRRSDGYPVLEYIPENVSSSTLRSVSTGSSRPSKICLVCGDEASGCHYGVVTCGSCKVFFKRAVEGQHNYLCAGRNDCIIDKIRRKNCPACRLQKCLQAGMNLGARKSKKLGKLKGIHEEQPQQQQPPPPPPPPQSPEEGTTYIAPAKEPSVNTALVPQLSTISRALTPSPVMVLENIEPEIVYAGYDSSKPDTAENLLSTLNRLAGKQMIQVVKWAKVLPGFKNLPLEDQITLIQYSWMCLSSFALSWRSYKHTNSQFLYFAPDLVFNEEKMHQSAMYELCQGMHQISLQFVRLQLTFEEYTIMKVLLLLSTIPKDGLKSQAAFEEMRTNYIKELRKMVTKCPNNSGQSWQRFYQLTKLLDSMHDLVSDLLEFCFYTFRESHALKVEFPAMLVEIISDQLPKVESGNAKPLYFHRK
Experimental: Ligand specificity of the hMR protein was determined by preparing cytosol extracts from COS cells transfected with pRShMR. Two days after transfection, cells were harvested, and hormone binding was measured by a dextran-treated charcoal assay. […] This provided a measure of the relative affinity of each of these steroids for hMR.
Steroid-binding properties of expressed hMR. FIG. 38 Structure of pRShMR, the hMR expression plasmid (41). […] Each point was assayed in triplicate with 100 micrograms of extract protein in a 200-microliter incubation at 0° C. for 2.5 hours. […] The results of two independent trials representative of these competition experiments are shown. Cold competitor was present in 1-, 10-, or 100-fold molar excess. […] Subconfluent COS cells were transfected by the DEAE-dextran method (42) with 10 micrograms of pRShMR per dish. Cells were maintained for 2 days in DMEM (Dulbecco's modification of Eagle's minimum essential medium) with 5 percent charcoal-treated fetal calf serum, then harvested in […] tris-HCl. (pH 7.8), 10 nM NaCl, 1 mM EDTA, 10 mM Na2MoO4, 5 mM dithiothreitol, antipain (5 microgram/ml), leupeptin (5 microgram/ml), and 500 microM phenylmethylsulfonyl fluoride. After centrifugation at 15,000×g for 10 minutes, extracts were adjusted to 100 mM NaCl and 5 percent glycerol before binding. […] After centrifugation at 15,000×g for 2 minutes at 40C, tritium in supernatant was quantified by liquid scintillation spectrophotometry.

In the case of C[C@]12CC[C@@H]3c4ccc(O)cc4CC[C@H]3[C@@H]1CC[C@@H]2O [oestradiol], the “competition for T3 binding to rTR alpha by excess compound” value (rTR alpha) is reported as “no competition” and the “relative affinity for hMR by competition with 5 nM [^3H]aldosterone (in words)” value (hMR) is reported as “competed very poorly”.
